Consider 20 compounds from patent publication US4405743A, “Pyrazolylpyrimidine derivatives” (Hokko Chemical Industry Co., Ltd., priority 1981, dated 1983).

For one data set, the system named is cucumber plant. The following applies: in vivo.
In the next data set the test system is Sphaerotheca friliginea. As to the kind of experiment: Effect of controlling cucumber powdery mildew, Experimental Example 4. In kind it is in vivo. The conditions noted are these: sprayed liquid 200 ppm, 10 days after inoculation. Here is the method: 10 ml of each of test liquids diluted to a predetermined concentration was sprayed over seedlings of a cucumber plant (variety: Sagami Hanpaku) grown up to the first leaf stage which has been soil cultured in an unglazed pot with a diameter of 9 cm in a green house. After allowing to stand overnight, the seedlings were sprayed for inoculation with a spore suspension of Sphaerotheca friliginea. Ten days after the inoculation, the rate of a lesion area (%) was checked and a control value was evaluated from the following equation. The degree of chemical injury against a cucumber plant was determined in the same manner as in Experimental Example.

Data set [1] deals with rice plant. The conditions noted are these: blast prevention test, 200 ppm.
In data set [2] the test system is Pyricularia oryzae. In kind it is in vivo, Pyricularia oryzae on rice plant (variety: Asahi). The conditions noted are these: rice blast, curative treatment; sprayed liquid 200 ppm; 5 days after spraying.
Data set [3] relates to rice plant. The conditions noted are these: blast curative test, 200 ppm.
Data set [4] deals with rice plant. The following applies: in vivo.
The next data set has as its system Cochliobolus miyabeanus. As to the kind of experiment: Effect of controlling rice brown spot, Experimental Example 3. The conditions noted are these: sprayed liquid 500 ppm, 5 days after inoculation. In kind it is in vivo, Cochliobolus miyabeanus on rice plant (variety: Asahi).
Data set [5] has as its system Pyricularia oryzae. In kind it is in vivo, Pyricularia oryzae on rice plant (variety: Asahi). The following applies: rice blast, prevention; 200 ppm; 5 days after inoculation.

Where two headings read alike, the source gives them in different places.

With `Cc1cccc(Oc2cc(C)nc(-n3nc(C)cc3C)n2)c1` [Compound 12], the “Degree of chemical injury” value in the data set with cucumber plant, with rice plant [1], in the data set on rice plant [3] and in the data set with rice plant [4] was 0 throughout. The Control Value with Sphaerotheca friliginea, in the data set with Pyricularia oryzae [2], with Cochliobolus miyabeanus and with Pyricularia oryzae [5] was 100% each time.
For `Cc1ccc(Oc2cc(C)nc(-n3nc(C)cc3C)n2)cc1` [Compound 13], the “Degree of chemical injury” value in the data set with cucumber plant, in the data set with rice plant [1], with rice plant [3] and in the data set with rice plant [4] was 0 in each case. Moreover, the Control Value in the data set with Sphaerotheca friliginea, in the data set on Pyricularia oryzae [2], in the data set on Cochliobolus miyabeanus and with Pyricularia oryzae [5] was 100% throughout.
`Cc1cc(Oc2ccc(C(C)C)cc2)nc(-n2nc(C)cc2C)n1` [Compound 14]: the “Degree of chemical injury” value with cucumber plant, with rice plant [1], with rice plant [3] and with rice plant [4] was 0 throughout. Besides, the Control Value was 100% in the data set with Sphaerotheca friliginea, 92% in the data set on Pyricularia oryzae [2], 94% with Cochliobolus miyabeanus and 100% in the data set with Pyricularia oryzae [5].
With `Cc1cc(Oc2ccc(C(C)(C)C)cc2)nc(-n2nc(C)cc2C)n1` [Compound 15], the “Degree of chemical injury” value in the data set with cucumber plant, in the data set on rice plant [1], in the data set with rice plant [3] and in the data set with rice plant [4] was 0 each time. Besides, the Control Value in the data set on Sphaerotheca friliginea was 91%; in the data set on Pyricularia oryzae [2], 100%; with Cochliobolus miyabeanus, 81%; with Pyricularia oryzae [5] it was 100%.
As for `COc1ccc(Oc2cc(C)nc(-n3nc(C)cc3C)n2)cc1` [Compound 17], the “Degree of chemical injury” value in the data set on cucumber plant, in the data set on rice plant [1], in the data set on rice plant [3] and in the data set with rice plant [4] was 0 throughout. The Control Value in the data set with Sphaerotheca friliginea, with Pyricularia oryzae [2], with Cochliobolus miyabeanus and with Pyricularia oryzae [5] was 100% in each case.
For the compound `Cc1cc(Oc2ccc(Cl)cc2Cl)nc(-n2nc(C)cc2C)n1` [Compound 23], the “Degree of chemical injury” value with cucumber plant, in the data set on rice plant [1], in the data set with rice plant [3] and in the data set on rice plant [4] was 0 each time. Also, the Control Value was 82% in the data set on Sphaerotheca friliginea, 86% in the data set on Pyricularia oryzae [2], 84% in the data set on Cochliobolus miyabeanus and 100% in the data set on Pyricularia oryzae [5].
In the case of `Cc1ccc(C)c(Oc2cc(C)nc(-n3nc(C)cc3C)n2)c1` [Compound 28], the “Degree of chemical injury” value with cucumber plant, with rice plant [1], in the data set with rice plant [3] and with rice plant [4] was 0 each time. Moreover, the Control Value in the data set with Sphaerotheca friliginea is 100%; in the data set with Pyricularia oryzae [2], 98%; in the data set on Cochliobolus miyabeanus it was 100%; in the data set on Pyricularia oryzae [5] it was 100%.
For the compound `Cc1cc(C)cc(Oc2cc(C)nc(-n3nc(C)cc3C)n2)c1` [Compound 29], the “Degree of chemical injury” value in the data set with cucumber plant, in the data set on rice plant [1], in the data set on rice plant [3] and with rice plant [4] was 0 throughout. Moreover, the Control Value in the data set with Sphaerotheca friliginea, in the data set with Pyricularia oryzae [2], with Cochliobolus miyabeanus and with Pyricularia oryzae [5] was 100% in each case.
`Cc1cc(C)c(C)c(Oc2cc(C)nc(-n3nc(C)cc3C)n2)c1` [Compound 30]: the “Degree of chemical injury” value in the data set with cucumber plant, in the data set on rice plant [1], in the data set on rice plant [3] and in the data set with rice plant [4] was 0 throughout. Besides, the Control Value in the data set on Sphaerotheca friliginea was determined as 92%; in the data set on Pyricularia oryzae [2] it was 100%; in the data set on Cochliobolus miyabeanus, 87%; in the data set with Pyricularia oryzae [5] it was 100%.
In the case of `CCSc1nc(-n2nc(C)cc2C)ncc1C` [Compound 33], the “Degree of chemical injury” value with cucumber plant, in the data set with rice plant [1], in the data set on rice plant [3] and in the data set on rice plant [4] was 0 throughout. For the same compound, the Control Value with Sphaerotheca friliginea came to 94%; in the data set with Pyricularia oryzae [2] it was 82%; with Cochliobolus miyabeanus, 82%; in the data set with Pyricularia oryzae [5], 100%.
For the compound `Cc1cc(C)n(-c2ncc(C)c(Oc3ccccc3)n2)n1` [Compound 34], the “Degree of chemical injury” value in the data set with cucumber plant, in the data set on rice plant [1], in the data set with rice plant [3] and with rice plant [4] was 0 in each case. The Control Value came out at 100% with Sphaerotheca friliginea, 100% with Pyricularia oryzae [2], 98% in the data set with Cochliobolus miyabeanus and 92% in the data set with Pyricularia oryzae [5].
Take `CCOc1nc(-n2nc(C)cc2C)nc(C)c1C` [Compound 36]: the “Degree of chemical injury” value with cucumber plant stood at 0; with rice plant [1] it was 0; in the data set with rice plant [3], 9; in the data set on rice plant [4], 0. Besides, the Control Value was 93% in the data set with Sphaerotheca friliginea, 99% in the data set with Pyricularia oryzae [2], 100% in the data set on Cochliobolus miyabeanus and 100% in the data set on Pyricularia oryzae [5].
For the compound `CCSc1nc(-n2nc(C)cc2C)nc(C)c1C` [Compound 37], the “Degree of chemical injury” value with cucumber plant, in the data set on rice plant [1], in the data set on rice plant [3] and in the data set on rice plant [4] was 0 in each case. Besides, the Control Value worked out at 100% in the data set with Sphaerotheca friliginea, 81% in the data set with Pyricularia oryzae [2], 93% in the data set on Cochliobolus miyabeanus and 100% with Pyricularia oryzae [5].
With `Cc1cc(C)n(-c2nc(C)c(C)c(Sc3ccccc3)n2)n1` [Compound 39], the “Degree of chemical injury” value in the data set with cucumber plant, with rice plant [1], in the data set with rice plant [3] and in the data set on rice plant [4] was 0 each time. Further, the Control Value in the data set with Sphaerotheca friliginea stood at 100%; with Pyricularia oryzae [2], 100%; in the data set with Cochliobolus miyabeanus it was 78%; with Pyricularia oryzae [5], 100%.
For `CCCc1c(C)nc(-n2nc(C)cc2C)nc1OC` [Compound 40], the “Degree of chemical injury” value with cucumber plant, in the data set with rice plant [1], in the data set on rice plant [3] and in the data set on rice plant [4] was 0 throughout. Further, the Control Value in the data set with Sphaerotheca friliginea is reported as 97%; in the data set on Pyricularia oryzae [2] it was 100%; in the data set on Cochliobolus miyabeanus, 81%; with Pyricularia oryzae [5], 100%.
For the compound `CCCCc1c(C)nc(-n2nc(C)cc2C)nc1Oc1ccccc1` [Compound 43], the “Degree of chemical injury” value with cucumber plant, in the data set with rice plant [1], with rice plant [3] and in the data set on rice plant [4] was 0 in each case. Further, the Control Value in the data set on Sphaerotheca friliginea was 82%; with Pyricularia oryzae [2], 86%; with Cochliobolus miyabeanus it was 94%; in the data set with Pyricularia oryzae [5], 100%.
`CCCCc1c(C)nc(-n2nc(C)cc2C)nc1Sc1ccccc1` [Compound 44]: the “Degree of chemical injury” value in the data set with cucumber plant, in the data set on rice plant [1], in the data set with rice plant [3] and with rice plant [4] was 0 throughout. In addition, the Control Value in the data set with Sphaerotheca friliginea is listed as 94%; with Pyricularia oryzae [2], 92%; in the data set with Cochliobolus miyabeanus it was 91%; in the data set on Pyricularia oryzae [5], 100%.
As for `CCCCCCc1cc(SCC)nc(-n2nc(C)cc2C)n1` [Compound 45], the “Degree of chemical injury” value with cucumber plant, in the data set with rice plant [1], in the data set on rice plant [3] and in the data set on rice plant [4] was 0 in each case. Besides, the Control Value with Sphaerotheca friliginea is 91%; in the data set with Pyricularia oryzae [2] it was 90%; with Cochliobolus miyabeanus it was 88%; in the data set on Pyricularia oryzae [5], 92%.
With `CCCCCCc1cc(Sc2ccccc2)nc(-n2nc(C)cc2C)n1` [Compound 46], the “Degree of chemical injury” value with cucumber plant, in the data set on rice plant [1], in the data set with rice plant [3] and with rice plant [4] was 0 each time. In addition, the Control Value in the data set with Sphaerotheca friliginea was 83%; in the data set on Pyricularia oryzae [2] it was 99%; with Cochliobolus miyabeanus, 99%; with Pyricularia oryzae [5] it was 84%.
`CCCCCCc1cc(Oc2ccc(Cl)cc2)nc(-n2nc(C)cc2C)n1` [Compound 47]: the “Degree of chemical injury” value in the data set with cucumber plant, with rice plant [1], in the data set on rice plant [3] and in the data set with rice plant [4] was 0 each time. Besides, the Control Value came out at 79% in the data set on Sphaerotheca friliginea, 100% in the data set with Pyricularia oryzae [2], 90% in the data set on Cochliobolus miyabeanus and 100% in the data set with Pyricularia oryzae [5].
